Reference: PubChem BioAssay (NCI)
Where “and” joins values, the source holds several entries; their conditions need not be identical. Equal values may be shown once.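 Interpolation was linear, between the two tested concentrations surrounding the appropriate level; five concentrations were tested over 48 hours in 96-well plates. At the GI50, growth is halved. At the TGI there is no net growth.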

Tests used:
Experiment in all cases: NCI tumour cell line growth inhibition, 48 h
NCI-H460 lung = system: NCI-H460 lung
M14 melanoma = system: M14 melanoma
EKVX NSCLC = system: EKVX NSCLC
A498 renal = system: A498 renal
HCT-15 colon = system: HCT-15 colon
PC-3 prostate = system: PC-3 prostate
MDA-MB-231 breast = system: MDA-MB-231 breast
MCF7 breast = system: MCF7 breast
CCRF-CEM leukemia = system: CCRF-CEM leukemia
BT-549 breast = system: BT-549 breast

| SMILES | TGI (NCI-H460 lung) | TGI (M14 melanoma) | TGI (EKVX NSCLC) | TGI (A498 renal) | TGI (HCT-15 colon) [µM] | GI50 (NCI-H460 lung) | GI50 (PC-3 prostate) [µM] | TGI (PC-3 prostate) [µM] | GI50 (M14 melanoma) | GI50 (EKVX NSCLC) | GI50 (MDA-MB-231 breast) [nM] | TGI (MDA-MB-231 breast) [µM] | GI50 (MCF7 breast) [µM] | TGI (MCF7 breast) | GI50 (CCRF-CEM leukemia) | TGI (CCRF-CEM leukemia) | GI50 (A498 renal) | GI50 (HCT-15 colon) | GI50 (BT-549 breast) [µM] | TGI (BT-549 breast) |
| --- | --- | --- | --- | --- | --- | --- | --- | --- | --- | --- | --- | --- | --- | --- | --- | --- | --- | --- | --- | --- |
| O=C(CC1(O)C(=O)Nc2ccccc21)c1cccc(O)c1 (centres undefined) | > 100 µM | > 100 µM | > 100 µM | > 100 µM | > 100 | – | – | – | – | – | – | – | – | – | – | – | – | – | – | – |
| Nc1nc(SCC#CCCl)c2[nH]cnc2n1 | 16.7 µM | 20.9 µM | 15.4 µM | 6.87 µM | 17.7 | 3620 nM | 14.6 | 75.8 | 6.58 µM | 3.22 µM | 6260 | 21.4 | 4.12 | 16.3 µM | 3.39 µM | 19.3 µM | 1640 nM | 3520 nM | – | – |
| C=C(C)[C@@H]1CC[C@]2(C(=O)O)CC[C@]3(C)[C@H](CC[C@@H]4[C@@]5(C)CCC(N)C(C)(C)[C@@H]5CC[C@]43C)[C@@H]12 (some centres undefined) | > 100 µM | – | – | – | – | 3120 nM | – | – | – | – | 1880 | 3.69 | – | – | 2.11 µM | 5.53 µM | – | – | – | – |
| CC(=O)[CH-]C(=O)c1ccccc1.CC(=O)[CH-]C(=O)c1ccccc1.Cl.[O-]CCc1ccccn1.[O-]CCc1ccccn1.[Ti+4] | – | 70.5 µM | 78.2 µM | 75.1 µM | > 100 | – | – | – | 22 µM | 28.9 µM | – | – | – | – | 15.9 µM | > 100 µM | 28800 nM | 46200 nM | – | – |
| C(=C\c1ccc2ccccc2c1Nc1ccccc1)/c1ccccc1 | > 59.2 µM | 49.6 µM | > 100 µM | 47.6 µM | > 100 | – | – | – | – | – | – | – | – | – | – | 30.5 µM | – | – | – | – |
| O=C1N(c2ccc(Cl)cc2)C(=O)C2(SC=NN2Cc2ccccc2)N1c1ccc(Cl)cc1 (centres undefined) | > 100 µM | > 100 µM | > 100 µM | > 100 µM | – | – | – | – | – | – | – | – | – | – | – | > 100 µM | – | – | – | – |
| CN(C)NC(=O)NC12CC3CC(CC(C3)C1)C2 | > 100 µM | – | > 100 µM | > 100 µM | > 100 | – | – | – | – | – | – | – | – | – | – | > 100 µM | – | – | – | – |
| COc1ccccc1NC(=O)c1sc2ncn(CCOc3ccccc3)c(=O)c2c1C | > 50 µM | > 50 µM | > 50 µM | – | 15.1 | 2550 nM | > 50 | > 50 | 3.54 µM | 5.08 µM | 2610 | > 50 | 3.55 | > 50 µM | – | – | – | 431 nM | 26.7 | > 50 µM |
| CCCCCCCCCC(=O)Oc1ccc(/C(=C(/C)c2ccccc2)c2ccc(OCCN3CCCC3)cc2)cc1 | 15.9 µM | – | 13.6 µM | – | 13.1 | 8460 nM | 8.28 | 15.7 | – | 6.92 µM | 10200 | 20.2 | 0.005 | 10.3 µM | 9.51 µM | 22.3 µM | – | 6690 nM | 8.22 | 16.8 µM |
| O=C1c2ccc3c4c(ccc(c24)C(=O)N1CCCCO)C(=O)N(CCCCO)C3=O | 4.75 µM | – | – | 2.87 µM | 10.5 | 1120 nM | 3.1 | 30.1 | – | – | 2900 | 97.9 | 1.43 | 3.84 µM | 2.74 µM | > 100 µM | 1120 nM | 1550 nM | 4.82 | 17.4 µM |
| N#Cc1sc2nc3c(c(-c4ccccc4)c2c1N)CCCC3 | > 100 µM | – | – | > 100 µM | > 100 | – | – | – | – | – | – | – | – | – | – | > 100 µM | – | – | – | – |
| CCNC(=O)O/N=C1\CCC2[C@@H]3CC=C4C[C@@H](OC(=O)NCC)CC[C@]4(C)C3CC[C@]12C (some centres undefined) | 10 µM | 3.23 µM | 4.84 µM | > 100 µM | 12.5 | – | – | – | – | – | – | – | – | – | – | – | – | – | – | – |
| Nc1ncc(CN2CCCC2)c(-c2ccccc2O)n1 | > 750 µM | > 750 µM | – | > 750 µM | > 750 | – | – | – | – | – | – | – | – | – | > 750 µM | – | – | – | – | – |
| COc1cc2c3c(c4cc(OC)c(OC)cc4c2cc1OC)CN1CCC[C@H]1C3 | 1.13 µM and 0.825 µM | 2.15 µM and 1.21 µM | 0.285 µM and 0.284 µM | 0.0368 µM | – | 30 nM and < 10 nM | – | – | 0.0502 µM and < 0.0142 µM | 0.0216 µM and < 0.01 µM | – | 0.174 | – | 0.127 µM and 0.318 µM | 0.0524 µM and < 0.0104 µM | 0.977 µM and 4.84 µM | – | 46.3 nM and 11.1 nM | – | 0.0849 µM and 0.657 µM |
| CC(=O)O[C@H]1CSC[C@@H](OC(C)=O)C1[N+](=O)[O-] (some centres undefined) | > 100 µM | 87.7 µM | > 100 µM | > 100 µM | 88.9 | – | – | – | – | – | – | – | – | – | – | 44.4 µM | – | – | – | – |
| NC1(C(=O)O)CCC(C(=O)O)CC1 (centres undefined) | > 100 µM | > 100 µM | > 100 µM | > 100 µM | – | – | – | – | – | – | – | – | – | – | – | > 100 µM | – | – | – | – |
| CSCSCC(CO)NC(=O)/C=C/c1c(C)[nH]c(=O)[nH]c1=O (centres undefined) | > 100 µM | > 100 µM | > 100 µM | > 100 µM | > 100 | – | – | – | – | – | – | – | – | – | – | > 100 µM | – | – | – | – |
| CC(=O)OC1(C(C)=O)CC2(c3ccccc3)OC1(c1ccccc1)c1ccccc12 (centres undefined) | > 100 µM | > 100 µM | > 100 µM | – | > 100 | – | – | – | – | – | – | – | – | – | – | – | – | – | – | – |
| C=C1C(C)C2C(Cc3ccccc3)NC(=O)C23C(OC(C)=O)C=CC(C)(O)C(=O)C(C)C/C=C/C3C1O (centres undefined) | > 295 µM | – | > 95.5 µM and 30 µM | 1.47 µM and 13.9 µM | > 500 | 291 nM | – | – | 3.18 µM | – | 193 | > 220 | 8.87 | 87 µM and 275 µM | 15.4 µM | 78.8 µM and > 500 µM | 202 nM and 50 nM | > 500000 nM | – | – |
| CCOC(=O)C(Oc1ccc(OC)c2c1C(=O)CCC2)c1ccccc1 (centres undefined) | > 100 µM | > 100 µM | > 100 µM | > 100 µM | > 100 | – | – | – | – | – | – | – | – | – | – | > 100 µM | – | – | – | – |
| CN(C(=O)C12C3C4C1C1C2C3C41C#N)C(C)(C)C (centres undefined) | > 100 µM | > 100 µM | > 100 µM | > 100 µM | – | – | – | – | – | – | – | – | – | – | – | > 100 µM | – | – | – | – |
| COc1cc2c(c3oc4c(O)cccc4c(=O)c13)CC(C(C)(O)CCl)O2 (centres undefined) | 13.2 µM | 1.27 µM | 21.9 µM | 37.3 µM | > 27.2 | – | – | 7.76 | – | – | – | 5.6 | – | 12.9 µM | – | – | – | – | – | 12.5 µM |
| CC1=C(\C=C/C(C)=C/C=C/C(C)=C/C=C/C=C(C)\C=C\C=C(C)/C=C/C2=C(C)CCCC2(C)C)C(C)(C)CCC1 | > 100 µM | > 100 µM | – | > 100 µM | > 100 | – | – | > 100 | – | – | – | > 100 | – | > 100 µM | – | > 100 µM | – | – | – | > 100 µM |
